# In US20230067194A1, “METHOD FOR TREATMENT OF ACQUIRED COGNITIVE DEFICITS” (CORNELL UNIVERSITY, priority 2020, published 2023):
# “Also recorded” adds a separate entry of the source.
# Columns and labels:
# SBI mice = assay: Sleep-wake cycle LFP power spectra in secondary-blast injury (SBI) mice with sodium oxybate injection; assay type: in vivo
# Description: FIGS. 7A-7B. Effects of sodium oxybate injection on the sleep-wake cycle of SBI mice. The top panels display the delta power during the dark (blue; daytime) and light (yellow; sleep time) within 24 hours in (A) Non-REM, or (B) Wake mice. The pink vertical lines represent the time in which animals received an intraperitoneal injection of sodium oxybate (SO; 400 mg/Kg) diluted in saline. The bottom panels show the LFP power spectra obtained from sleep periods and wake periods with and without sodium oxybate. In (A), the dark blue line represents NREM sleep without sodium oxybate administration and the red line represents NREM sleep with sodium oxybate administration. In (B), the dark blue line represents Wake without sodium oxybate administration during prior sleep and the red line represents Wake with sodium oxybate administration during prior sleep. Application of sodium oxybate during the night results in elevation of delta (1-5 Hz) LFP power and increases during the subsequent wakeful period in beta (15-30 Hz) and gamma (>30 Hz) LFP. Importantly, consistent with our theory because of the short half-life of sodium oxybate these changes in wakeful LFP power reflect alteration of cortical neuronal properties linked to the increased delta during sleep induced by sodium oxybate.
# The inventors inflicted a secondary-blast injury (SBI) to mice targeting the anterior forebrain mesocircuit, which corresponds to the frontal/prefrontalcortical-pallidal thalamocortical loop systems.
# The inventors examined animals' sleep-wake cycle before, after the SBI, and while injecting sodium oxybate (400 mg/Kg; FIG. 7A-7B). Local field potentials (LFPs) were recorded from the frontal area and neck-EMG activity to detect and extract the different sleep/wake cycle components—Non-REM, REM, and Wake state. The inventors examined the whole range of biological LFP frequencies before and after sodium oxybate injection by calculating power spectral density using Thomson's multi-taper method implemented using the Chronux tool box from MATLAB.
# [1] = cited from earlier work
# [2] = FIG. 7 legend, intraperitoneal 400 mg/Kg during prior sleep
# [3] = wake state post-sodium oxybate injection (400 mg/Kg), 400 mg/kg
structure (smiles),measurement,setting,value
O=C(O)CCCO [sodium oxybate],beta (15-30 Hz) LFP power during the subsequent wakeful period,SBI mice; [2],increases
same,gamma (>30 Hz) LFP power during the subsequent wakeful period,SBI mice; [2],increases
same,delta (1-5 Hz) LFP power,"SBI mice; FIG. 7 legend, intraperitoneal 400 mg/Kg in saline, application during the night, NREM sleep",elevation
same,delta oscillations (1-4 Hz) LFP power in Non-REM,"SBI mice; sodium oxybate 400 mg/Kg injected right before the sleep time (9 pm), frontal LFP",increase; also recorded: elevation
same,beta (20-40 Hz) LFP power during the wake state,SBI mice; [3],higher; also recorded: increases
same,gamma (>40 Hz) LFP power during the wake state,SBI mice; [3],higher; also recorded: increases
same,persistence of the elevation of delta power during the wakeful period,SBI mice; wakeful period after night application of sodium oxybate,does not persist
same,SWS (slow wave sleep),[1]; dose-dependent,dose-dependent upregulation
same,alpha-delta sleep,[1]; in several conditions,suppress alpha-delta sleep
